Values of other authors in US12433863B2, “Pharmaceutical compositions and uses directed to lysosomal storage disorders” (INTRABIO LIMITED, priority 2016, dated 2025).

Assays:
[1] = test system: rat model of an acute unilateral labyrinthectomy; settings: Gunther et al. 2015; cited from earlier work
[2] = test system: glycosphingolipid (GSL) biosynthesis; settings: Patterson, 2006; cited from earlier work

Structure (SMILES) | Effect on postural compensation [1] | Benefit in clinical trial of substrate reduction therapy [2]
CC(=O)N[C@@H](CC(C)C)C(=O)O [N-acetyl-L-leucine] | significant effect | –
CCCCN1C[C@H](O)[C@@H](O)[C@H](O)[C@H]1CO [miglustat] | – | some benefit
